Test results: patent publication US4273866A, “Ligand analog-irreversible enzyme inhibitor conjugates and methods for use” (priority 1979, dated 1981)

Key:
[1] = biological target: T1, E. electricus acetylcholinesterase (Electrophorus electricus, UniProt O42275); assay: Antibody modulation of Compound I inhibitory activity (residual acetylcholinesterase activity); assay type: biochemical; settings: Compound I 4.5 × 10^-7 M
Procedure: (§1) A stock solution of Compound I (4.6×10^-3 molar in methanol) is diluted 200-fold with pH 7.0, 0.1 molar phosphate buffer containing 0.1% gelatin. Digoxin antibody is diluted in phosphate-gelatin buffers as indicated in Table I. Fifty microliters of phosphate-gelatin buffer, pH 7.0, containing the indicated concentration of antibody is placed in sample cups of a bichromatic spectrophotometer (model ABA-100® sold by Abbott Laboratories). To each of these 50 μl is added 1 μl of Compound I working solution making the final concentration 4.5×10^-7 molar. The antibody and Compound I (inhibitor) are allowed to incubate for 10-15 minutes at room temperature. Each sample receives 1 .parallel.l of working enzyme solution (9.5×10^-9 molar of E. electricus acetylcholinesterase in pH 7.0 phosphate-gelatin buffer). The final enzyme concentration is 1.9×10^-10 molar. The sample is diluted 1/26 with assay buffer containing acetylthiocholine, as substrate, 5×10^-4 molar and 5,5'-dithiobis-(2 -nitrobenzoic acid) (DTNB), 1.6×10^-4 molar in pH 7.0 phosphate-gelatin buffer. The change in absorbance with time is measured after 5 minutes in the bichromatic analyzer equipped with a 415/550 nm filter at 30° C.

[2] = biological target: T1, E. electricus acetylcholinesterase; assay: Specific modulation of Compound I inhibition by digoxin antibody and digoxin; assay type: biochemical
Procedure: as §1, with “C. The results are as follows:” for “C.”
(§2) The above experiment is repeated except digoxin at a concentration of 2.5×10^-5 molar is added to the sample cups. […] Fifty microliters of phosphate-gelatin buffer is added to a sample cup. The buffer solution either contains 2.5×10^-5 molar digoxin or is a control. To the sample cup is added a final concentration of 9×10^-7 molar digoxin antibody and 4.5×10^-7 molar Compound I. These solutions are allowed to incubate for 15 minutes and then enzyme is added and assayed according to the previous procedure.

[3] = biological target: T1, E. electricus acetylcholinesterase; assay: Residual enzyme activity with Compound I, antibody and digoxin in buffer; assay type: biochemical; settings: antibody 4.5×10^-7 molar, after 21 minutes
Procedure: as §1, with “C. The results are as follows:” for “C.”
as §2, with “procedure. The results are as follows:” for “procedure.”
Using the above procedures with the exception that the antibody final concentration in the sample is 4.5×10^-7 molar, various phosphate-gelatin buffer solutions are prepared with the indicated digoxin concentration. Each of these solutions are analyzed by adding antibody and Compound I to the solution as in the previous procedure, allowing a 2.5 minute incubation period to elapse and assaying for the residual enzyme activity after 21 minutes.

[4] = tested on: acetylcholinesterase; assay: Digoxin in serum assay with Compound I; assay type: biochemical, E. electricus
Procedure: as §1, with “C. The results are as follows:” for “C.”
Normal human serum containing digoxin concentrations listed in the table below are assayed by the procedure set out above.
N-Ethylmaleimide is used to block background sulfhydryl groups in human serum.
Thus, 1 μl of concentrated digoxin antibody in pH 7.0 phosphate-gelatin buffer containing 50 mM of N-methylorphenadrine is added to 50 μl of each serum standard then N-ethylmaleimide is added with mixing to each serum standard to make a working concentration of 1.6 mM. To the serum is also added 1 μl of a solution containing Compound I in pH 7.0, 0.1 molar phosphate-gelatin buffer. The final antibody concentration is 8.0×10^-7 molar and the final concentration of Compound I is 4.5×10^-7. These solutions are allowed to incubate for 12 minutes at which time acetylcholinesterase is added as before. After 26 minutes, the bichromatic spectrophotometer is started and a sample from each cup is diluted 26-fold with assay buffer containing 1.6×10^-5 molar DTNB, 5×10^-4 molar acetyl-β-methylthiocholine iodide, and 1 mM N-methyl-orphenadrine in pH 7.0, 0.1 molar phosphate-gelatin buffer. The final enzyme concentration is about 2×10^-11 molar and the cuvette temperature is 30° C. The change in absorbance after 5 minutes is as follows: […]

[5] = tested on: human serum cholinesterase; assay: Inhibition of human serum cholinesterase; assay type: biochemical; settings: 1 mM
From the text: (§3) N,N,N-Trimethyl-2-(o-methyl-α-phenylbenzyloxy) ethylammonium methylsulfate(N-methylorphenadrine) prepared by reacting N,N-dimethyl-2-(o-methyl-α-phenylbenzyloxy) ethylamine(orphenadrine)with dimethylsulfate.

[6] = biological target: cholinesterase from E.electricus (Electrophorus electricus, UniProt O42275); assay: Inhibition of cholinesterase from E.electricus; assay type: biochemical; settings: 1 mM
From the text: as §3

T1 sequence (O42275 24-633): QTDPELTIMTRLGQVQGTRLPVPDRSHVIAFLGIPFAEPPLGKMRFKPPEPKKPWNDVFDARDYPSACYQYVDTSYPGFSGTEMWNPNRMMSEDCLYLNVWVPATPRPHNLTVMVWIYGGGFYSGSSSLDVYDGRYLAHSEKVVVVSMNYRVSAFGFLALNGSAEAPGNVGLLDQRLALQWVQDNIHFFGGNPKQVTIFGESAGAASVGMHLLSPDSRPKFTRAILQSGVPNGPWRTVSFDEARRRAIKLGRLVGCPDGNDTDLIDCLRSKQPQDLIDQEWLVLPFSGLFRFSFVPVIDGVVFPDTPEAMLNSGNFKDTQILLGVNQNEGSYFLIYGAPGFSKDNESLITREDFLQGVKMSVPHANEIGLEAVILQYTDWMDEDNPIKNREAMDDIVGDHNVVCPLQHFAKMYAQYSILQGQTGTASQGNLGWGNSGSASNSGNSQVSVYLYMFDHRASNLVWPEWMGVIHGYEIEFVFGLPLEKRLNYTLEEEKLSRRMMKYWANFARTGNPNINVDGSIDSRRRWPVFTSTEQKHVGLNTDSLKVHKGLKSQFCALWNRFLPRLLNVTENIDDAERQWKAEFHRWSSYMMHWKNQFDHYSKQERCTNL
cholinesterase from E.electricus, sequence (O42275 24-633): as above

## CCOP(=O)(OCCCCCNC(=O)CCCCCNC(=O)OC1CCC2(C)C(CCC3C2CC(O)C2(C)C(C4=CC(=O)OC4)CCC32O)C1)Oc1ccc2ccc[n+](C)c2c1 (stereo not shown) [Compound I]
[1]; antibody 9 × 10^-7 M, enzyme 1.9 × 10^-10 M, 10' incubation
  change in absorbance with time: 0.161 Ad/5 min.
[1]; antibody 9 × 10^-7 M, enzyme 1.9 × 10^-10 M, 21' incubation
  change in absorbance with time: 0.137 Ad/5 min.
[1]; antibody 9 × 10^-7 M, enzyme 1.9 × 10^-10 M, 43' incubation
  change in absorbance with time: 0.107 Ad/5 min.
[1]; antibody 9 × 10^-8 M, enzyme 1.9 × 10^-10 M, 10' incubation
  change in absorbance with time: 0.089 Ad/5 min.
[1]; antibody 9 × 10^-8 M, enzyme 1.9 × 10^-10 M, 21' incubation
  change in absorbance with time: 0.027 Ad/5 min.
[1]; antibody 9 × 10^-8 M, enzyme 1.9 × 10^-10 M, 43' incubation
  change in absorbance with time: 0.005 Ad/5 min.
[1]; no antibody, enzyme 1.9 × 10^-10 M (enzyme alone 0.220), 10' incubation
  change in absorbance with time: 0.045 Ad/5 min.
[1]; no antibody, enzyme 1.9 × 10^-10 M (enzyme alone 0.221), 21' incubation
  change in absorbance with time: 0.015 Ad/5 min.
[1]; no antibody, enzyme 1.9 × 10^-10 M (enzyme alone 0.222), 43' incubation
  change in absorbance with time: 0.003 Ad/5 min.
[2]; Enzyme + Compound I + Antibody (9×10^-7 molar), 0.3'
  Ad/5 min. after enzyme-inhibitor incubation time: 0.160 Ad/5 min.
[2]; Enzyme + Compound I + Antibody (9×10^-7 molar), 11'
  Ad/5 min. after enzyme-inhibitor incubation time: 0.129 Ad/5 min.
[2]; Enzyme + Compound I + Antibody (9×10^-7 molar), 19'
  Ad/5 min. after enzyme-inhibitor incubation time: 0.115 Ad/5 min.
[2]; Enzyme + Compound I + Antibody + Digoxin (2.5×10^-5 molar), 0.3'
  Ad/5 min. after enzyme-inhibitor incubation time: 0.160 Ad/5 min.
[2]; Enzyme + Compound I + Antibody + Digoxin (2.5×10^-5 molar), 11'
  Ad/5 min. after enzyme-inhibitor incubation time: 0.068 Ad/5 min.
[2]; Enzyme + Compound I + Antibody + Digoxin (2.5×10^-5 molar), 19'
  Ad/5 min. after enzyme-inhibitor incubation time: 0.038 Ad/5 min.
[2]; Enzyme + Compound I, 0.3' (enzyme only 0.174)
  Ad/5 min. after enzyme-inhibitor incubation time: 0.162 Ad/5 min.
[2]; Enzyme + Compound I, 11' (enzyme only 0.169)
  Ad/5 min. after enzyme-inhibitor incubation time: 0.037 Ad/5 min.
[2]; Enzyme + Compound I, 19' (enzyme only 0.167)
  Ad/5 min. after enzyme-inhibitor incubation time: 0.013 Ad/5 min.
[3]; digoxin 0.062 μM
  % Activity of Enzyme: 65%
[3]; digoxin 0.125 μM
  % Activity of Enzyme: 65%
[3]; digoxin 0.25 μM
  % Activity of Enzyme: 62%
[3]; digoxin 0.5 μM
  % Activity of Enzyme: 57%
[3]; digoxin 1.0 μM
  % Activity of Enzyme: 36%
[4]; digoxin in serum 0.1 μM, antibody 8.0×10^-7 molar, Compound I 4.5×10^-7
  change in absorbance after 5 minutes: 0.096 Ad/5 Min.
[4]; digoxin in serum 0.13 μM
  change in absorbance after 5 minutes: 0.089 Ad/5 Min.
[4]; digoxin in serum 0.17 μM
  change in absorbance after 5 minutes: 0.083 Ad/5 Min.
[4]; digoxin in serum 0.26 μM
  change in absorbance after 5 minutes: 0.077 Ad/5 Min.
[4]; digoxin in serum 0.34 μM
  change in absorbance after 5 minutes: 0.073 Ad/5 Min.
[4]; digoxin in serum 0.51 μM
  change in absorbance after 5 minutes: 0.063 Ad/5 Min.
[4]; digoxin in serum 0.64 μM
  change in absorbance after 5 minutes: 0.060 Ad/5 Min.
[4]; digoxin in serum 0.85 μM
  change in absorbance after 5 minutes: 0.047 Ad/5 Min.
[4]; digoxin in serum 1.30 μM
  change in absorbance after 5 minutes: 0.035 Ad/5 Min.

## Cc1ccccc1C(OCC[N+](C)(C)C)c1ccccc1 (stereo not drawn) [N-methylorphenadrine, N,N,N-Trimethyl-2-(o-methyl-α-phenylbenzyloxy) ethylammonium methylsulfate]
[5]
  inhibition of human serum cholinesterase: greater than 99%
[6]
  inhibition at 1000 µM: 25%
